Assay results published in PubChem BioAssay (NCI).
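Grown in 96-well plates, cells were treated for 48 hours with each compound at five concentrations. Insufficient inhibition: endpoint recorded as highest concentration tested. Abbreviation: GI50, concentration required for 50% inhibition of growth. TGI: concentration producing complete growth inhibition.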

What was measured:
Experiment in all cases: NCI-60 cell line screen, 48 h
SNB-75 CNS = tested on: SNB-75 CNS
M14 melanoma = tested on: M14 melanoma
UACC-257 melanoma = tested on: UACC-257 melanoma
NCI-H522 lung = tested on: NCI-H522 lung
HL-60(TB) leukemia = tested on: HL-60(TB) leukemia
COLO 205 colon = tested on: COLO 205 colon
CCRF-CEM leukemia = tested on: CCRF-CEM leukemia
SF-268 CNS = tested on: SF-268 CNS
KM12 colon = tested on: KM12 colon
NCI/ADR-RES ovarian = tested on: NCI/ADR-RES ovarian
MDA-MB-231 breast = tested on: MDA-MB-231 breast
UO-31 renal = tested on: UO-31 renal
A498 renal = tested on: A498 renal
SK-MEL-2 melanoma = tested on: SK-MEL-2 melanoma
U251 CNS = tested on: U251 CNS
SN12C renal = tested on: SN12C renal
HOP-92 NSCLC = tested on: HOP-92 NSCLC
SNB-19 CNS = tested on: SNB-19 CNS
DU-145 prostate = tested on: DU-145 prostate
SW-620 colon = tested on: SW-620 colon
HCT-15 colon = tested on: HCT-15 colon
HT29 colon = tested on: HT29 colon
SR leukemia = tested on: SR leukemia
T-47D breast = tested on: T-47D breast
PC-3 prostate = tested on: PC-3 prostate
HCC-2998 colon = tested on: HCC-2998 colon
ACHN renal = tested on: ACHN renal
IGROV1 ovarian = tested on: IGROV1 ovarian

## COc1ccc(S(=O)(=O)Nc2cc(/C=C\c3cc(OC)c(OC)c(OC)c3)cc(OC)c2OC)cc1
SNB-75 CNS
  GI50: 26.5 nM
  TGI: > 100000 nM
M14 melanoma
  GI50: 30.1 nM
  TGI: > 100000 nM
UACC-257 melanoma
  GI50: 4100 nM
  TGI: 98900 nM
NCI-H522 lung
  GI50: 19.7 nM
  TGI: 52 nM
HL-60(TB) leukemia
  GI50: 23.4 nM
  TGI: 63.5 nM
COLO 205 colon
  GI50: 21.4 nM
  TGI: 45.9 nM
CCRF-CEM leukemia
  GI50: 32.9 nM
  TGI: > 100000 nM
SF-268 CNS
  GI50: 57.5 nM
  TGI: > 100000 nM
KM12 colon
  GI50: 39.7 nM
  TGI: > 100000 nM
NCI/ADR-RES ovarian
  GI50: 35.3 nM
  TGI: 81500 nM
MDA-MB-231 breast
  GI50: 47.9 nM
  TGI: > 100000 nM
UO-31 renal
  GI50: 63.5 nM
  TGI: 85300 nM
A498 renal
  GI50: 21.7 nM
  TGI: 92.4 nM
SK-MEL-2 melanoma
  GI50: 37.4 nM
  TGI: 63300 nM
U251 CNS
  GI50: 35.7 nM
  TGI: > 100000 nM
SN12C renal
  GI50: 69.8 nM
  TGI: > 100000 nM
HOP-92 NSCLC
  GI50: 1760 nM
  TGI: 82300 nM
SNB-19 CNS
  GI50: 60.1 nM
  TGI: > 100000 nM
DU-145 prostate
  GI50: 41.6 nM
  TGI: > 100000 nM
SW-620 colon
  GI50: 43.9 nM
  TGI: > 100000 nM
HCT-15 colon
  GI50: 35.8 nM
  TGI: > 100000 nM
HT29 colon
  GI50: 33.1 nM
  TGI: 122 nM
SR leukemia
  GI50: 35.2 nM
  TGI: 2370 nM
T-47D breast
  GI50: 5210 nM
  TGI: > 100000 nM
PC-3 prostate
  GI50: 38 nM
  TGI: > 100000 nM
HCC-2998 colon
  GI50: 39.1 nM
  TGI: > 100000 nM
ACHN renal
  GI50: 57 nM
  TGI: 23200 nM
IGROV1 ovarian
  GI50: 57.7 nM
